Source: US12681018B2, “Photoactive fluorescent compounds and use thereof for labeling of proteins” (EIKON THERAPEUTICS, INC., priority 2021, dated 2026)
Like-named read-outs stand apart in the source and are kept apart here.

Target: T1, Estrogen Receptor-HaloTag (ER-Halo) fusion (Rhodococcus rhodochrous, UniProt P0A3G2, A155T/A167V/A172T/A224E/C128F/C176G/D78G/E160K/E257K/H272N/K175M/K195N/L47V/L88M/N227D/P291S/S58T/T264A/Y273L/Y87F)
T1 construct: expressed in transfected cells; host or cells: U2OS
T1 sequence (P03372 whole entry, the tested form may be a part): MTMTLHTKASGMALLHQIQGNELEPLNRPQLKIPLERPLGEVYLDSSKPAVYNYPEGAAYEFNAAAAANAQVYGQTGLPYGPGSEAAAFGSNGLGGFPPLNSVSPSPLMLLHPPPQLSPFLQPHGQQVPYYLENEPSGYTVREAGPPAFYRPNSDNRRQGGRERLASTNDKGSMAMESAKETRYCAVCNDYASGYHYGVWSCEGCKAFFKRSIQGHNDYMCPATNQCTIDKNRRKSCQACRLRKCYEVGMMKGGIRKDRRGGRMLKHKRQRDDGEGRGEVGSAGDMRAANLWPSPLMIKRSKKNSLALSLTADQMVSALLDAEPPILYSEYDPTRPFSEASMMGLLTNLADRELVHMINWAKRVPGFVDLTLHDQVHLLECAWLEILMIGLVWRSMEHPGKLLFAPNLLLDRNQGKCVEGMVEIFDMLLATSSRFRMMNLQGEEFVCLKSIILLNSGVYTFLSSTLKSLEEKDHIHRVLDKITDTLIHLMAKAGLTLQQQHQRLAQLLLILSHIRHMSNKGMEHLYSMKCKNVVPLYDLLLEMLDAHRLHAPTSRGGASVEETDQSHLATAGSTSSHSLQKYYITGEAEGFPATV
T1 sequence (P0A3G2 other isoform, or with tags, fused parts or gaps with the stated changes): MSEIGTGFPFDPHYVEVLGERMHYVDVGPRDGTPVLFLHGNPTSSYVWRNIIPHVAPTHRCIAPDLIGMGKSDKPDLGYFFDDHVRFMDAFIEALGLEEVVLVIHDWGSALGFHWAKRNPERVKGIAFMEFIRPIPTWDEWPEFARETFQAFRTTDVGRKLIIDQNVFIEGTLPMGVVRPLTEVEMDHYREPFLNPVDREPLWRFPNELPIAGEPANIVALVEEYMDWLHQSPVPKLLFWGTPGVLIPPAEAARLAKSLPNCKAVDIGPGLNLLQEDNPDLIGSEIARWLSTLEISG
Type: cell-based
Details: tracks in WT U2OS cells, ratio with PA-JF549 in the numerator, 100 nM, 1 hr
Procedure: Using the methods described in Tables 4a and 4b above, labelling specificity of the compound of Examples 1-24 was measured and compared to PA-JF549. U2OS cells wild type or expressing ER-HaloTag fusion were incubated with PA-JF549 or Examples 1-24 for 1 hr. […] Labeling specificity, as measured by the fold reduction in nonspecific labeling of WT cells, was calculated by number of tracks measured in WT cells for Examples 1-24 compared to the number of tracks in WT cells for PA-JF549, expressed as the ratio with PA-JF549 in the numerator.

| Compound | Fold reduction in nonspecific labeling (Table 4b) | Fold reduction in nonspecific labeling (Table 4a) |
| --- | --- | --- |
| 1,1′-(6-((2-(2-((6-chlorohexyl)oxy)ethoxy)ethyl)carbamoyl)-2-diazo-3-oxo-2,3-dihydrospiro[indene-1,9′-xanthene]-3′,6′-diyl)bis(azetidine-3-carboxamide [Example 20] | >10 | – |
| 3′,6′-di(azetidin-1-yl)-6-((2-(2-((6-chlorohexyl)oxy)ethoxy)ethyl)amino)-3H-spiro[isobenzofuran-1,9′-xanthen]-3-one [Example 21] | 5-10 | – |
| CN(C)C(=O)C1CN(c2ccc3c(c2)Oc2cc(N4CC(C(=O)N(C)C)C4)ccc2C32C(=[N+]=[N-])C(=O)c3ccc(C(=O)NCc4ccc(COc5nc(N)nc6nc[nH]c56)cc4)cc32)C1 [Example 5] | >10 | >10 |
| COC(=O)[C@H]1CCN1c1ccc2c(c1)Oc1cc(N3CC[C@@H]3C(=O)OC)ccc1C21C(=[N+]=[N-])C(=O)c2ccc(C(=O)NCCOCCOCCCCCCCl)cc21 [Example 6] | 1-5 | 1-5 |
| [N-]=[N+]=C1C(=O)c2ccc(C(=O)NCCOCCOCCCCCCCl)cc2C12c1ccc(N3CC(O)C3)cc1Oc1cc(N3CC(O)C3)ccc12 [Example 7, N-(2-(2-((6-chlorohexyl)oxy)ethoxy)ethyl)-2-diazo-3′,6′-bis(3-hydroxyazetidin-1-yl)-3-oxo-2,3-dihydrospiro[indene-1,9′-xanthene]-6-carboxamide] | >10 | >10 |
| CN(CCOCCOCCCCCCCl)C(=O)c1ccc2c(c1)C1(C(=[N+]=[N-])C2=O)c2ccc(N3CCC3)cc2Oc2cc(N3CCC3)ccc21 [Example 8, 3′,6′-di(azetidin-1-yl)-N-(2-(2-((6-chlorohexyl)oxy)ethoxy)ethyl)-2-diazo-N-methyl-3-oxo-2,3-dihydrospiro[indene-1,9′-xanthene]-6-carboxamide] | 5-10 | 5-10 |
| [N-]=[N+]=C1C(=O)c2ccc(C(=O)NCCOCCOCCCCCCCl)cc2C12c1ccc(N3CC(C(=O)N4CCOCC4)C3)cc1Oc1cc(N3CC(C(=O)N4CCOCC4)C3)ccc12 [Example 9, N-(2-(2-((6-chlorohexyl)oxy)ethoxy)ethyl)-2-diazo-3′,6′-bis(3-(morpholine-4-carbonyl)azetidin-1-yl)-3-oxo-2,3-dihydrospiro[indene-1,9′-xanthene]-6-carboxamide] | >10 | >10 |
| [N-]=[N+]=C1C(=O)c2ccc(C(=O)NCCOCCOCCCCCCCl)cc2C12c1ccc(N3CC(C(=O)N4CCCC4)C3)cc1Oc1cc(N3CC(C(=O)N4CCCC4)C3)ccc12 [Example 10, N-(2-(2-((6-chlorohexyl)oxy)ethoxy)ethyl)-2-diazo-3-oxo-3′,6′-bis(3-(pyrrolidine-1-carbonyl)azetidin-1-yl)-2,3-dihydrospiro[indene-1,9′-xanthene]-6-carboxamide] | 5-10 | 5-10 |
| CN1CCN(C(=O)C2CN(c3ccc4c(c3)Oc3cc(N5CC(C(=O)N6CCN(C)CC6)C5)ccc3C43C(=[N+]=[N-])C(=O)c4ccc(C(=O)NCCOCCOCCCCCCCl)cc43)C2)CC1 [Example 11, N-(2-(2-((6-chlorohexyl)oxy)ethoxy)ethyl)-2-diazo-3′,6′-bis(3-(4-methylpiperazine-1-carbonyl)azetidin-1-yl)-3-oxo-2,3-dihydrospiro[indene-1,9′-xanthene]-6-carboxamide] | 1-5 | 1-5 |
| CNC(=O)C1CN(c2ccc3c(c2)Oc2cc(N4CC(C(=O)NC)C4)ccc2C32C(=[N+]=[N-])C(=O)c3ccc(C(=O)NCCOCCOCCCCCCCl)cc32)C1 [Example 12, 1,1′-(6-((2-(2-((6-chlorohexyl)oxy)ethoxy)ethyl)carbamoyl)-2-diazo-3-oxo-2,3-dihydrospiro[indene-1,9′-xanthene]-3′,6′-diyl)bis(N-methylazetidine-3-carboxamide)] | >10 | >10 |
| CN(C)C1CN(c2ccc3c(c2)Oc2cc(N4CC(N(C)C)C4)ccc2C32C(=[N+]=[N-])C(=O)c3ccc(C(=O)NCCOCCOCCCCCCCl)cc32)C1 [Example 13, N-(2-(2-((6-chlorohexyl)oxy)ethoxy)ethyl)-2-diazo-3′,6′-bis(3-(dimethylamino)azetidin-1-yl)-3-oxo-2,3-dihydrospiro[indene-1,9′-xanthene]-6-carboxamide] | 5-10 | 5-10 |
| CN(C)C(=O)[C@@H]1CCN1c1ccc2c(c1)Oc1cc(N3CC[C@H]3C(=O)N(C)C)ccc1C21C(=[N+]=[N-])C(=O)c2ccc(C(=O)NCCOCCOCCCCCCCl)cc21 [Example 14, (2S,2'S)-1,1′-(6-((2-(2-((6-chlorohexyl)oxy)ethoxy)ethyl)carbamoyl)-2-diazo-3-oxo-2,3-dihydrospiro[indene-1,9′-xanthene]-3′,6′-diyl)bis(N,N-dimethylazetidine-2-carboxamide)] | >10 | >10 |
| [N-]=[N+]=C1C(=O)c2ccc(C(=O)NCCOCCOCCCCCCCl)cc2C12c1ccc(N3CC[C@@H]3CO)cc1Oc1cc(N3CC[C@@H]3CO)ccc12 [Example 15, N-(2-(2-((6-chlorohexyl)oxy)ethoxy)ethyl)-2-diazo-3′,6′-bis((R)-2-(hydroxymethyl)azetidin-1-yl)-3-oxo-2,3-dihydrospiro[indene-1,9′-xanthene]-6-carboxamide] | 5-10 | 5-10 |
| CN(C)C(=O)[C@H]1CCN(c2ccc3c(c2)Oc2cc(N4CC[C@H](C(=O)N(C)C)C4)ccc2C32C(=[N+]=[N-])C(=O)c3ccc(C(=O)NCCOCCOCCCCCCCl)cc32)C1 [Example 16, (3S,3′S)-1,1′-(6-((2-(2-((6-chlorohexyl)oxy)ethoxy)ethyl)carbamoyl)-2-diazo-3-oxo-2,3-dihydrospiro[indene-1,9′-xanthene]-3′,6′-diyl)bis(N,N-dimethylpyrrolidine-3-carboxamide)] | 5-10 | 5-10 |
| [N-]=[N+]=C1C(=O)c2ccc(C(=O)NCCOCCOCCCCCCCl)cc2C12c1ccc(N3C4COCC3C4)cc1Oc1cc(N3C4COCC3C4)ccc12 (stereo not shown) [Example 17, 3′,6′-di(3-oxa-6-azabicyclo[3.1.1]heptan-6-yl)-N-(2-(2-((6-chlorohexyl)oxy)ethoxy)ethyl)-2-diazo-3-oxo-2,3-dihydrospiro[indene-1,9′-xanthene]-6-carboxamide] | 1-5 | 1-5 |
| CN1CC2CC(C1)N2c1ccc2c(c1)Oc1cc(N3C4CC3CN(C)C4)ccc1C21C(=[N+]=[N-])C(=O)c2ccc(C(=O)NCCOCCOCCCCCCCl)cc21 (stereo not shown) [Example 18, N-(2-(2-((6-chlorohexyl)oxy)ethoxy)ethyl)-2-diazo-3′,6′-bis(3-methyl-3,6-diazabicyclo[3.1.1]heptan-6-yl)-3-oxo-2,3-dihydrospiro[indene-1,9′-xanthene]-6-carboxamide] | >10 | >10 |
| CN(C)C(=O)C1CN(c2ccc3c(c2)[Si](C)(C)c2cc(N4CC(C(=O)N(C)C)C4)ccc2C32C(=[N+]=[N-])C(=O)c3ccc(C(=O)NCCOCCOCCCCCCCl)cc32)C1 [Example 19] | >10 | – |
| [N-]=[N+]=C1C(=O)c2ccc(NC(=O)CCOCCOCCCCCCCl)cc2C12c1ccc(N3CCC3)cc1Oc1cc(N3CCC3)ccc12 [Example 22, 3-(2-((6-chlorohexyl)oxy)ethoxy)-N-(3′,6′-di(azetidin-1-yl)-2-diazo-3-oxo-2,3-dihydrospiro[indene-1,9′-xanthen]-6-yl)propanamide] | 5-10 | – |
| [N-]=[N+]=C1C(=O)c2ccc(CCCCOCCOCCCCCCCl)cc2C12c1ccc(N3CCC3)cc1Oc1cc(N3CCC3)ccc12 [Example 24, 3′,6′-di(azetidin-1-yl)-6-(4-(2-((6-chlorohexyl)oxy)ethoxy)butyl)-2-diazospiro[indene-1,9′-xanthen]-3(2H)-one] | 1-5 | – |
| (E)-3′,6′-di(azetidin-1-yl)-6-(4-(2-((6-chlorohexyl)oxy)ethoxy)but-1-en-1-yl)-2-diazospiro[indene-1,9′-xanthen]-3(2H)-one and (Z)-3′,6′-di(azetidin-1-yl)-6-(4-(2-((6-chlorohexyl)oxy)ethoxy)but-1-en-1-yl)-2-diazospiro[indene-1,9′-xanthen]-3(2H)-one [Example 23] | >10 | – |
